Key:
Experiment in all cases: relative viability (nuclei count vs DMSO), 5 days (fraction); higher = more cells survive
[1] = compound: CC1=C(C=CC(=C1)[N+](=O)[O-])NS(=O)(=O)C2=C(C=CC(=C2)Cl)Cl [FH535] + C[C@@H](Oc1cc(-c2cnn(C3CCNCC3)c2)cnc1N)c1c(Cl)ccc(F)c1Cl [Crizotinib] (partner 1 µM)
Summary of the method: (§1)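 A single step with final 0.05% Triton X-100, 1% formaldehyde and 1 ug/ml Hoechst fixed the cells and stained nuclei 5 days after treatment. Lung cancer cell lines in 1536-well plates had been treated by pin tool the day after seeding with one drug alone or a fixed anchor-drug dose plus five library-drug doses (not always all listed) in √10 steps, and nuclei were counted on 4× images. Relative viability is the ratio of nuclei in treated wells to nuclei in vehicle wells, taken as the median of duplicate plates.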

[2] = compound: CC1=C(C=CC(=C1)[N+](=O)[O-])NS(=O)(=O)C2=C(C=CC(=C2)Cl)Cl [FH535] + Cc1nc(NC(=O)N2CCC[C@H]2C(N)=O)sc1-c1ccnc(C(C)(C)C(F)(F)F)c1 [Alpelisib] (partner 2 µM)
Summary of the method: as §1

[3] = compound: CC1=C(C=CC(=C1)[N+](=O)[O-])NS(=O)(=O)C2=C(C=CC(=C2)Cl)Cl [FH535] + N=C(N)NC(=N)NCCc1ccccc1 [Phenformin] (partner 250 µM)
Summary of the method: as §1

[4] = compound: CC1=C(C=CC(=C1)[N+](=O)[O-])NS(=O)(=O)C2=C(C=CC(=C2)Cl)Cl [FH535] + COc1cc2c(Oc3ccc(NC(=O)C4(C(=O)Nc5ccc(F)cc5)CC4)cc3F)ccnc2cc1OCCCN1CCOCC1 [Foretinib] (partner 0.25 µM)
Summary of the method: as §1

[5] = compound: CC1=C(C=CC(=C1)[N+](=O)[O-])NS(=O)(=O)C2=C(C=CC(=C2)Cl)Cl [FH535] + COc1cccc2cc(-c3nc([C@H]4CC[C@H](C(=O)O)CC4)n4ncnc(N)c34)[nH]c12 [OSI-027] (partner 0.5 µM)
Summary of the method: as §1

Row | Cell Line | relative viability ([1]; first compound 0.04 µM) | relative viability ([1]; first compound 0.1265 µM) | relative viability ([1]; first compound 0.4 µM) | relative viability ([1]; first compound 1.265 µM) | relative viability ([2]; first compound 0.04 µM) | relative viability ([2]; first compound 0.1265 µM) | relative viability ([2]; first compound 0.4 µM) | relative viability ([2]; first compound 1.265 µM) | relative viability ([3]; first compound 0.04 µM) | relative viability ([3]; first compound 0.1265 µM) | relative viability ([3]; first compound 0.4 µM) | relative viability ([3]; first compound 1.265 µM) | relative viability ([4]; first compound 0.04 µM) | relative viability ([4]; first compound 0.1265 µM) | relative viability ([4]; first compound 0.4 µM) | relative viability ([4]; first compound 1.265 µM) | relative viability ([5]; first compound 0.04 µM) | relative viability ([5]; first compound 0.1265 µM) | relative viability ([5]; first compound 0.4 µM) | relative viability ([5]; first compound 1.265 µM)
1 | NCI-H1666 | 1.06 | 0.979 | 0.956 | 0.871 | 1.04 | 0.956 | 1.01 | 0.693 | 0.582 | 0.513 | 0.476 | 0.373 | 0.919 | 0.975 | 0.913 | 0.8 | 0.866 | 0.843 | 0.777 | 0.705
2 | NCI-H1734 | 0.625 | 0.691 | 0.648 | 0.588 | 0.651 | 0.715 | 0.693 | 0.617 | – | 0.394 | 0.373 | 0.269 | – | 0.91 | 0.886 | 0.773 | – | 0.633 | 0.55 | 0.503
3 | NCI-H1755 | 0.931 | 0.859 | 0.801 | 0.776 | 0.941 | 0.897 | 0.853 | 0.867 | 0.539 | 0.627 | 0.558 | 0.494 | 0.862 | 0.894 | 0.874 | 0.854 | 0.552 | 0.675 | 0.683 | 0.629
4 | NCI-H1915 | 0.907 | 0.871 | 0.867 | 0.688 | 1 | 1.07 | 1.05 | 0.738 | 0.339 | 0.385 | 0.309 | 0.292 | 1.11 | 1.08 | 1.01 | 0.738 | 0.542 | 0.683 | 0.552 | 0.525
5 | NCI-H1944 | – | 1.18 | 0.962 | 0.907 | – | 0.858 | 0.848 | 0.837 | 0.17 | 0.205 | 0.161 | 0.109 | 0.855 | 0.922 | 0.882 | 0.857 | 0.35 | 0.449 | 0.364 | 0.365
6 | NCI-H1975 | 1.06 | 1.08 | 0.948 | 0.842 | 0.614 | 0.682 | 0.607 | 0.487 | 0.384 | 0.402 | 0.35 | 0.256 | 0.889 | 0.973 | 0.936 | 0.789 | 0.721 | 0.705 | 0.584 | 0.534
7 | NCI-H1993 | 0.809 | 0.911 | 0.589 | 0.609 | 0.629 | 0.78 | 0.662 | 0.596 | 0.415 | 0.495 | 0.533 | 0.524 | 0.76 | 0.753 | 0.741 | 0.575 | 0.556 | 0.522 | 0.531 | 0.617
8 | NCI-H2009 | 1.1 | 1.06 | 0.903 | 0.677 | 1.15 | 1.16 | 1.17 | 0.959 | 0.486 | 0.447 | 0.402 | 0.179 | 1.27 | 1.22 | 1.18 | 0.929 | 0.58 | 0.627 | 0.566 | 0.486
9 | NCI-H2023 | 0.761 | 0.639 | 0.676 | 0.723 | 0.659 | 0.629 | 0.686 | 0.604 | 0.384 | 0.375 | 0.314 | 0.191 | 0.876 | 0.995 | 0.699 | 0.743 | 0.362 | 0.406 | 0.385 | 0.331
10 | NCI-H2085 | 1.03 | 0.969 | 0.705 | 0.695 | 0.959 | 0.977 | 0.941 | 0.675 | 0.687 | 0.65 | 0.585 | 0.451 | 1.01 | 0.869 | 0.89 | 0.59 | 0.644 | 0.709 | 0.602 | 0.508
11 | NCI-H2087 | 0.96 | 0.774 | 0.765 | 0.415 | 1.11 | 1.04 | 0.887 | 0.613 | 0.425 | 0.398 | 0.286 | 0.155 | 1.05 | 1.07 | 0.916 | 0.766 | 0.522 | 0.454 | 0.478 | 0.421
12 | NCI-H2126 | 0.976 | 0.984 | 0.941 | 0.683 | 0.744 | 0.744 | 0.718 | 0.626 | 0.525 | 0.53 | 0.457 | 0.348 | 0.955 | 1.31 | 1.06 | 0.601 | 0.72 | 0.742 | 0.692 | 0.532
13 | NCI-H2170 | 1.14 | 1.3 | 1.19 | 1.04 | 0.853 | 0.965 | 0.784 | 0.769 | 0.394 | 0.416 | 0.319 | 0.28 | 1.06 | 0.96 | 0.988 | 0.891 | 0.72 | 0.779 | 0.619 | 0.554
14 | NCI-H2228 | 0.523 | 0.606 | 0.486 | 0.388 | 0.687 | 0.669 | 0.911 | 0.63 | 0.241 | 0.377 | 0.288 | 0.224 | 0.752 | 0.87 | 0.707 | 0.936 | 0.487 | 0.71 | 0.658 | 0.522
15 | NCI-H2347 | 0.677 | 0.617 | 0.807 | 0.649 | 1.01 | 1.09 | 0.966 | 0.837 | 0.409 | 0.332 | 0.425 | 0.27 | 0.792 | 0.865 | 1.03 | 0.701 | 0.405 | 0.486 | 0.306 | 0.37
16 | NCI-H2405 | 0.816 | 0.854 | 0.805 | 0.725 | 0.685 | 0.843 | 0.84 | 0.585 | 0.395 | 0.378 | 0.344 | 0.331 | 1.01 | 1.07 | 0.967 | 0.761 | 0.605 | 0.62 | 0.564 | 0.439
